# Publication PMC10783034, “Pharmacokinetic and pharmacodynamic evaluation of the atypical tetracyclines chelocardin and amidochelocardin in murine infection models” (Microbiology Spectrum, 2023)
# What was measured:
# [1] = tested on: E. coli C175-94; experiment: Ascending urinary tract infection model in OF-1 mice; assay type: in vivo; details: for bacterial burden in urine: CHD/CDCHD 12 mg/kg SC BID on day 1 and 2 post-inoculation; for bacterial burden in urine / bacterial burden in kidneys / bacterial burden in the bladder: day 3, vs vehicle; for animals with sterile kidneys / bacterial burden in kidneys / bacterial burden in the bladder: CHD/CDCHD 12 mg/kg SC BID, gentamicin 100 mg/kg SC BID; for animals with sterile kidneys: control animals 23.8%
# Experimental: The model was conducted as described previously ([27], [60]). In brief, n = 21 animals were used per group in the main study, and n = 3 animals per group in satellite groups for histopathological analysis. Three days before the start of the study and during the study, mice had free access to 5% glucose as drinking water. Fresh overnight colonies of E. coli from a 5% horse blood agar plate were suspended in PBS pH 7.4 to approximately 10^9 cfu/mL. Approximately 1 hour before inoculation, mice were treated orally with […] Nurofen (20 mg ibuprofen/mL corresponding to approximately 30 mg/kg) as a pain relief. Urine was removed from the bladder by gently pressing the abdomen and mice were anaesthetized with 0.15 mL Zoletil mix SC. Thereafter, the mice were inoculated. A syringe with a catheter, containing the bacterial suspension was inserted via the urethra into the bladder and 50 µL of the inoculum was slowly injected into the bladder. Hereafter, the mouse was placed in the cage and kept in a warming cabinet until fully awake (approximately 4 hours). The mice were treated with CHD (12 mg/kg SC BID), CDCHD (12 mg/kg SC BID), gentamicin (100 mg/kg SC BID), or vehicle BID (2nd dose was administered approximately 6 hours after the 1st dose on each day) on day 1, that is, first dose around 24 hours post-infection, and day 2 post-inoculation. The mice were observed during the study and scored based on their behavior and clinical signs. Clinical scoring comprised assessment of piloerection in the skin, activity (movement, curiosity), and appearance of eyes. The scoring range comprised 0–4. In our model, a maximum score of 1; thus, only mild discomfort was observed. On day 3 post-inoculation and after sampling urine, mice were euthanized by cervical dislocation, and bladder and kidneys were removed from 21 mice in each treatment group aseptically for cfu determination. The bladder and kidneys were stored at −80°C and later homogenized in 0.5 or 1 mL saline, respectively. Colony counts of urine were determined immediately. From the three additional mice in each treatment group (satellite groups), urine and plasma were sampled and frozen at −80°C, and bladders, kidneys, and liver were collected in 4% buffered formalin. Cfu was determined in urine samples within 2–3 hours after sampling. Frozen organs were thawed and homogenized with steel beads using a tissue lyser. All samples, urine, kidney, and bladder, were 10-fold diluted in saline and 20 µL spots were applied on blue agar plates in duplicates. In addition, undiluted samples of urine (2–100 μL depending on the available amount of urine) were spread on a separate agar plate to determine the colony counts at the lowest possible detection level. All agar plates were incubated for 18–22 hours at 35°C in ambient air.
# (§1) For the neutropenic thigh infection model with E. coli ATCC 25922, the thighs were regarded as two independent infection sites throughout the experiment. For statistical analysis, individual thighs (left and right) were treated as separate samples although these were not completely independent values. For the neutropenic thigh infection model with K. pneumoniae ATCC 43816, the individual thighs (left and right) were treated as one sample. For the efficacy models, the non-parametric Kruskal-Wallis test was used with GraphPad Prism 9.4.1. For the ascending urinary tract infection model, an ordinary one-way ANOVA with Dunnett’s multiple comparison test was used with GraphPad Prism 9.4.1.
# [2] = tested on: E. coli ATCC 25922; set-up: method as in PMID 32962088; details: cited from earlier work
# [3] = tested on: K. pneumoniae ATCC 43816; set-up: method as in PMID 32962088; details: cited from earlier work
# [4] = tested on: E. coli ATCC 25922; experiment: Neutropenic thigh infection model in CD-1 mice; assay type: in vivo; details: for bacterial burden in the thigh relative to stasis (pre-treatment group): 50 mg/kg IV QD; for tolerability: doses up to 50 mg/kg IV in the neutropenic thigh infection model
# Experimental: (§2) The inoculum for K. pneumoniae ATCC 43816 was prepared freshly as described previously to yield 1 × 10^4 cfu/mL ([56]). The inoculum of the E. coli ATCC 25922 was diluted from a frozen stock to 1.4 × 10^6 cfu/ml. N = 6 animals per group were used for both tested strains. N = 4 mice were used in the pre-treatment group in the neutropenic thigh infection model with E. coli ATCC 25922. Mice were rendered neutropenic by administration of 150 mg/kg and 100 mg/kg cyclophosphamide intraperitoneally on days −4 and −1, respectively. On the day of infection (day 0), mice received 30 µL of the inoculum of K. pneumoniae ATCC 43816 into each lateral thigh under isoflurane anesthesia, corresponding to 6 × 10^2 cfu/mouse. In the model with E. coli, mice received 50 µL of the inoculum of E. coli into each lateral thigh under isoflurane anesthesia, corresponding to 1.4 × 10^5 cfu/mouse. Whilst still under anesthesia, mice were administered a dose of Buprenorphine (0.03 mg/kg) subcutaneously for pain relief. 24 hours after infection, mice were euthanized by slowly introducing CO2 and cardiac puncture to remove blood from the heart immediately after death. Kidneys and thighs were aseptically removed. 24 hours after infection, the clinical score of every individual animal was assessed. Clinical scoring comprises the assessment of different parameters such as spontaneous behavior, posture, appearance, and provoked behavior. Each parameter was assessed with a score of 0 to 3 (ascending severity from 0 to 3). The humane endpoint was reached when the clinical score of a single parameter was 3 or if the total clinical score was higher than 8. Whole blood was collected into Eppendorf tubes coated with 0.5 M EDTA. Organs were homogenized in 0.9% NaCl solution. Organs and blood were plated onto agar plates in duplicates in serial dilutions and incubated at 37°C for 24 hours. 25 µL per dilution of the homogenized organ was spotted onto agar plates. In addition, 1 mL of homogenized organ is streaked onto an agar plate in technical duplicates. If no single colony is observed then, this would result in 0 cfu/mL. Thus, the threshold of detection is 0 log10 cfu/g. The groups used in the different neutropenic thigh infection models are found in Tables S4 through S7. In brief, levofloxacin with 3.3 mg/kg TID IP was used as a positive control antibiotic for the K. pneumoniae model, whereas ciprofloxacin with 20 mg/kg BID IV was used for the E. coli model, respectively. The rationale for TID dosing was based on the PK/PD index of fAUC/MIC for fluoroquinolones ([57] [–] [59]). […] Moreover, CHD and CDCHD were administered at 10 mg/kg SC QID (t = 1,3,5,7 hours), 15 mg/kg SC TID (t = 1,4,7 hours), and 50 mg/kg SC QD (t = 1 hour) (Tables S5 and S6). In the E. coli neutropenic thigh infection model, CHD and CDCHD, respectively, were administered at 50 mg/kg IV QD (t = 1 hour) and 15 mg/kg IV BID (t = 1 and 6 hours) (Table S7).
# as §1
# [5] = tested on: K. pneumoniae ATCC 43816; experiment: Neutropenic thigh infection model in CD-1 mice; assay type: in vivo
# Experimental: as §2, §1
# [6] = 24 hours after infection, CHD/CDCHD 10 mg/kg SC QD or BID, levofloxacin 3.3 mg/kg IP TID, vs vehicle
# [7] = higher-dose studies: 10 mg/kg SC QID, 15 mg/kg SC TID, 50 mg/kg SC QD, levofloxacin 3.3 mg/kg IP TID
Structure (SMILES),bacterial burden in urine [1],animals with sterile kidneys [1] [%],bacterial burden in kidneys [1],bacterial burden in the bladder [1],MIC [2] [µg/mL],minimal bactericidal concentration (MBC) [3] [µg/mL],bacterial burden in the thigh relative to stasis (pre-treatment group) [4],tolerability [4],"bacterial burden in blood [5, 6]","bacterial burden in the kidney [5, 7]",other results
"Cc1ccc2c(C)c3c(c(O)c2c1O)C(=O)C1(O)C(=O)C(C(N)=O)=C(O)C(N)C1C3 (centres unmarked) [CDCHD, 2-carboxamido-2-deacetyl-chelocardin]",reduced bacterial burden in urine significantly,61.9,strong and significant reduction,significant reduction compared to vehicle control,2,8,did not reduce bacterial load back to stasis,well tolerated,The same was found in blood,reduced bacterial burden in the kidney to apparent sterilization,"bacterial burden in kidney ([4]; both IV groups (15 mg/kg IV BID and 50 mg/kg IV QD)): pronounced reduction of bacterial burden; bacterial burden in the kidney ([5]; 10 mg/kg SC BID, vs vehicle control, similar to levofloxacin, not statistically significant): a reduction of bacterial burden was observed in the kidney; bacterial burden in blood ([5]; 10 mg/kg SC QID, 15 mg/kg SC TID, 50 mg/kg SC QD (all three groups)): a reduction of bacterial burden was observed; bacterial burden in the thigh ([5]; 50 mg/kg SC QD): a statistically significant reduction of bacterial burden in the thigh was observed; reduction of bacterial burden in the thigh ([5]; 50 mg/kg SC QD): approximately one"
"CC(=O)C1=C(O)[C@H](N)[C@@H]2Cc3c(c(O)c4c(O)c(C)ccc4c3C)C(=O)[C@]2(O)C1=O [CHD, chelocardin]",reduced bacterial burden in urine significantly,38.1,"slight, non-significant effect",significant reduction compared to vehicle control,2,16,reduction of bacterial burden to levels below stasis,well tolerated,The same was found in blood,no statistically significant effect was observed,"bacterial burden in kidney ([4]; 15 mg/kg IV BID): moderate reduction; bacterial burden in the thigh ([4]; 15 mg/kg IV BID): reduced bacterial burden in the thigh; kill in the thigh compared to the pre-treatment group ([4]; 50 mg/kg IV): ~1 log10-unit; reduction in the thigh compared to the vehicle ([4]; 50 mg/kg IV): 5 log10-unit; bacterial burden in the thigh ([5]; 10 mg/kg SC QID, 15 mg/kg SC TID, 50 mg/kg SC QD (all three dose levels)): no effect was observed in the thigh; bacterial burden in the kidney ([5]; 50 mg/kg SC QD): a slight reduction of bacterial burden; bacterial burden in blood ([5]; 50 mg/kg SC QD, similar range as levofloxacin, statistical significance missed): the bacterial burden was reduced"
